# Test system: human colon carcinoma cell line, Caco-2
# Assay: Fructose absorption inhibitory activity in the intestinal tracts (fructose permeation across a Caco-2 monolayer in Transwell inserts)
# Assay type: cell-based
# Conditions: Dosage 5 μg/ml; 50 mM fructose, 3 h, Caco-2 Transwell
# Description: Evaluation of fructose absorption inhibitory activity was carried out using the human colon carcinoma cell line, Caco-2 (manufactured by Dainippon Sumitomo Pharma Co., Ltd.) utilized for model experiments of the small intestinal mucosa. […] Caco-2 cells were seeded in a 6-well Transwell Insert (internal area: 4.2 cm2) and subcultured for around 3 weeks, while DMEM medium was replaced once every 3 to 4 days, until the Caco-2 cell density became around 2×10^5 cells/insert. The TEER value was measured before experiments and the state of Caco-2 cells was confirmed. […] Medium in the 6-well Transwell Insert was removed. […] A sample solution of each sample illustrated in Table 1 was added to the insert and each mixture was preincubated for 5 min. […] The TEER values were measured. […] The measurement was carried out three times for each sample illustrated in Table 1. The fructose concentrations of the permeated solutions were measured by an enzymatic method using D-fructose dehydrogenase (derived from Gluconobac sp.) (The concentration of each reagent represents the final concentration, respectively.). […] The fructose absorption inhibitory rate of each compound was determined using the following formula (I). […] As control, measurement was also carried out for gallic acid, ellagic acid, quercetin, (+)-catechin, (−)-epicatechin and (−)-epigallocatechin gallate.
row,Compound,Inhibitory Rate [%]
1,"O=C(O[C@H]1[C@@H]2OC(=O)c3cc(O)c(O)c(O)c3-c3c(cc(O)c(O)c3O)C(=O)OC[C@H]2OC(O)[C@@H]1OC(=O)c1cc(O)c(O)c(O)c1)c1cc(O)c(O)c(O)c1 (stereo partly shown) [compound 1, Tellimagrandin I]",49
2,"O=C(O[C@@H]1O[C@@H]2COC(=O)c3cc(O)c(O)c(O)c3-c3c(cc(O)c(O)c3O)C(=O)O[C@H]2[C@H](OC(=O)c2cc(O)c(O)c(O)c2)[C@H]1O)c1cc(O)c(O)c(O)c1 [compound 5, 1,3-di-O-galloyl-4,6-HHDP-β-D-glucose]",57
3,"O=C(O[C@H]1[C@@H]2OC(=O)c3cc(O)c(O)c(O)c3-c3c4cc(c(O)c3O)Oc3c(cc(O)c(O)c3O)C(=O)O[C@H]3C(O)O[C@@H]5COC(=O)c6cc(O)c(O)c(O)c6-c6c(cc(c(O)c6O)Oc6c(cc(O)c(O)c6O)C(=O)O[C@H]1C(O)O[C@@H]2COC4=O)C(=O)O[C@H]5[C@@H]3OC(=O)c1cc(O)c(O)c(O)c1)c1cc(O)c(O)c(O)c1 (stereo partly shown) [compound 7, Oenothein B]",63
4,"(−)-epigallocatechin gallate [compound 16, reference compound]",28
5,Eugeniflorin D2 [compound 6],53

# Same assay, conditions: Dosage 50 μg/ml; 50 mM fructose, 3 h, Caco-2 Transwell
row,Compound,Inhibitory Rate [%]
1,"Oc1cc(O)c2c(c1)O[C@H](c1ccc(O)c(O)c1)[C@@H](O)C2 [compound 14, (+)-catechin, reference compound]",<10
2,"Oc1cc(O)c2c(c1)O[C@H](c1ccc(O)c(O)c1)[C@H](O)C2 [compound 15, (−)-epicatechin, reference compound]",<10

# Same assay, conditions: Homo sapiens; Dosage 5 μg/ml; 50 mM fructose, 3 h, Caco-2 Transwell; read-out: Inhibitory Rate
row,Compound,inhibition at 5 µg/mL [%]
1,"O=C(OC1O[C@@H]2COC(=O)c3cc(O)c(O)c(O)c3-c3c(cc(O)c(O)c3O)C(=O)O[C@H]2[C@H](OC(=O)c2cc(O)c(O)c(O)c2)[C@H]1OC(=O)c1cc(O)c(O)c(O)c1)c1cc(O)c(O)c(O)c1 (stereo partly shown) [compound 2, Tellimagrandin II]",52
2,"O=C(O[C@@H]1O[C@@H]2COC(=O)c3cc(O)c(O)c(O)c3-c3c(cc(O)c(O)c3O)C(=O)O[C@H]2[C@H](O)[C@H]1O)c1cc(O)c(O)c(O)c1 [compound 3, Strictinin]",43
3,"O=C(O[C@@H]1O[C@@H]2COC(=O)c3cc(O)c(O)c(O)c3-c3cc(c(O)c(O)c3O)C(=O)O[C@H]2[C@@H]2OC(=O)c3cc(O)c(O)c(O)c3-c3c(cc(O)c(O)c3O)C(=O)O[C@@H]12)c1cc(O)c(O)c(O)c1 [compound 4, Casuarictin]",46

# Same assay, conditions: Homo sapiens; Dosage 50 μg/ml; 50 mM fructose, 3 h, Caco-2 Transwell; read-out: Inhibitory Rate
row,Compound,inhibition at 50 µg/mL [%]
1,"O=C(O)c1cc(O)c(O)c(O)c1 [compound 11, Gallic acid, reference compound]",19
2,"O=c1oc2c(O)c(O)cc3c(=O)oc4c(O)c(O)cc1c4c23 [compound 12, Ellagic acid, reference compound]",22
3,"O=c1c(O)c(-c2ccc(O)c(O)c2)oc2cc(O)cc(O)c12 [compound 13, Quercetin, reference compound]",23

# Reference: patent US20150231162A1, “FRUCTOSE ABSORPTION INHIBITOR” (Nagaoka Perfumery Co., Ltd., priority 2011, published 2015)
